# From patent publication US10155259B2 (Merck Sharp & Dohme B.V., priority 2011, dated 2018)
# Molecular target: T1, human FSH receptor (Homo sapiens, UniProt P23945)
# T1 construct: expressed in transfected cells; host or cells: CHO cells, stably transfected; cotransfected with CRE-luciferase reporter
# T1 sequence (P23945 18-695): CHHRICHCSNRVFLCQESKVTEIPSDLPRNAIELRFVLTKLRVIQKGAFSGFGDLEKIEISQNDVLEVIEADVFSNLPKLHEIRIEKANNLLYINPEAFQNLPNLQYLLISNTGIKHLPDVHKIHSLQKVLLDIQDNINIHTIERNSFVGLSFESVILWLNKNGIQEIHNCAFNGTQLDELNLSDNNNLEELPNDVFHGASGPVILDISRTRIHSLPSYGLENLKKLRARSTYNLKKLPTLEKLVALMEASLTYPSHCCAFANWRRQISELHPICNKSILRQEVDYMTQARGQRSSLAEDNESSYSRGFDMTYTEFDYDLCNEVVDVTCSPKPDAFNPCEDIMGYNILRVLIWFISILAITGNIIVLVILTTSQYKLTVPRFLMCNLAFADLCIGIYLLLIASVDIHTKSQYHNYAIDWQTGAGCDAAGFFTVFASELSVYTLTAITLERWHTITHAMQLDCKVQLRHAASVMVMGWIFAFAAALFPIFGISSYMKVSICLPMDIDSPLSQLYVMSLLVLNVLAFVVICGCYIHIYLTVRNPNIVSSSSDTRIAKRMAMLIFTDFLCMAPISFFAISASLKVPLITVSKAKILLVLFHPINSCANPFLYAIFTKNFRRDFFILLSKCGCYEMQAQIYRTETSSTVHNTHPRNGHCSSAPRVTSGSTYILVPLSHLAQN
# Test: Antagonistic activity of compounds at the human FSH receptor expressed in CHO cells (CRE-luciferase reporter)
# Type: cell-based
# Conditions: CHO cells stably transfected with human FSH receptor and CRE/luciferase reporter; together with 49 μM recFSH; 4 hours incubation; 1% DMSO; read-out: IC50 (concentration of test compound causing half-maximal inhibition of the maximally attainable inhibition of the luciferase stimulation)
# Experimental: Antagonistic Activity of Compounds at the Human FSH Receptor Expressed in CHO Cells
# Antagonistic activity of the compounds at the human FSH receptor was determined in Chinese Hamster Ovary (CHO) cells stably transfected with the human FSH receptor and cotransfected with a cAMP responsive element (CRE)/promotor directing the expression of a firefly luciferase reporter gene. Binding of the compounds to the Gs protein-coupled FSH receptor will result in an increase of cAMP, which in turn will induce an increased transactivation of the luciferase reporter. The cells (7,500 cells/well of a 384 well plate) were incubated in Dulbecco' minimal essential F12 modified medium (Invitrogen), supplemented with 1 μg/ml bovine insulin, 5 μg/ml human apo-transferrin, 100 U/ml penicillin G and 100 μg/ml streptomycin with the test compounds (concentration between 0.316 nM and 10.0 μM) in duplicate together with […] (which, at this concentration in the absence of test compound, induces 80% of the maximal luciferase stimulation) in a humidified atmosphere (95%) at 5-7% CO2 and 37° C. The final concentration of DMSO was 1%. After 4 hours of incubation, plates were allowed to adjust to room temperature for 1 hour. Then, SteadyLite (PerkinElmer) solution was added to the wells and cells were allowed to lyse for at least 1 hour at room temperature. Subsequently, luciferase activity was measured in a luminescence counter. The signal is expressed as counts per second (cps). The IC50 (concentration of test compound causing half-maximal (50%) inhibition of the maximally attainable inhibition of the luciferase stimulation by the compound) and efficacy of the compounds were determined using the software program MathIQ (version 2.3, ID Business Solutions Limited).
row,SMILES,IC50 [µM]
1,"COc1cc2c(cc1OC(C)C)-c1cc(C(=O)N[C@@H](CO)Cc3c[nH]c4ccccc34)c(C(=O)C3CC3)n1CC2 [Example 27, (R)-3-(cyclopropanecarbonyl)-N-(1-hydroxy-3-(1H-indol-3-yl)propan-2-yl)-9-isopropoxy-8-methoxy-5,6-dihydropyrrolo[2,1-a]isoquinoline-2-carboxamide]",< 0.1
2,"COc1cc2c(cc1OC(C)C)-c1cc(C(=O)N[C@@H](CO)Cc3c[nH]c4ccccc34)c(C(=O)c3cccs3)n1CC2 [Example 28, (R)—N-(1-hydroxy-3-(1H-indol-3-yl)propan-2-yl)-9-isopropoxy-8-methoxy-3-(thiophene-2-carbonyl)-5,6-dihydropyrrolo[2,1-a]isoquinoline-2-carboxamide]",< 0.1
3,"COc1cc2c(cc1OC(C)C)-c1cc(C(=O)N[C@@H](CO)Cc3c[nH]c4ccccc34)c(C(=O)c3ccccc3)n1CC2 [Example 29, (R)-3-benzoyl-N-(1-hydroxy-3-(1H-indol-3-yl)propan-2-yl)-9-isopropoxy-8-methoxy-5,6-dihydropyrrolo[2,1-a]isoquinoline-2-carboxamide]",< 0.1
4,"CC(C)Oc1cc2c(cc1OC(C)C)-c1cc(C(=O)N[C@@H](CO)Cc3c[nH]c4ccccc34)c(-c3ccccc3)n1CC2 [Example 30, (R)—N-(1-hydroxy-3-(1H-indol-3-yl)propan-2-yl)-8,9-diisopropoxy-3-phenyl-5,6-dihydropyrrolo[2,1-a]isoquinoline-2-carboxamide]",0.1 to 1
5,"COc1cc2c(cc1O)-c1cc(C(=O)N[C@@H](CO)Cc3c[nH]c4ccccc34)c(-c3cccc(F)c3)n1CC2 [Example 31, (R)-3-(3-fluorophenyl)-9-hydroxy-N-(1-hydroxy-3-(1H-indol-3-yl)propan-2-yl)-8-methoxy-5,6-dihydropyrrolo[2,1-a]isoquinoline-2-carboxamide]",0.1 to 1
6,"C=CCOc1cc2c(cc1OC)CCn1c-2cc(C(=O)N[C@@H](CO)Cc2c[nH]c3ccccc23)c1-c1cccc(F)c1 [Example 32, (R)-9-(allyloxy)-3-(3-fluorophenyl)-N-(1-hydroxy-3-(1H-indol-3-yl)propan-2-yl)-8-methoxy-5,6-dihydropyrrolo[2,1-a]isoquinoline-2-carboxamide]",0.1 to 1
7,"COCCOc1cc2c(cc1OC)CCn1c-2cc(C(=O)N[C@@H](CO)Cc2c[nH]c3ccccc23)c1-c1cccc(F)c1 [Example 33, (R)-3-(3-fluorophenyl)-N-(1-hydroxy-3-(1H-indol-3-yl)propan-2-yl)-8-methoxy-9-(2-methoxyethoxy)-5,6-dihydropyrrolo[2,1-a]isoquinoline-2-carboxamide]",< 0.1
8,"COc1cc2c(cc1OCc1ccccc1)-c1cc(C(=O)N[C@@H](CO)Cc3c[nH]c4ccccc34)c(-c3cccc(F)c3)n1CC2 [Example 34, (R)-9-(benzyloxy)-3-(3-fluorophenyl)-N-(1-hydroxy-3-(1H-indol-3-yl)propan-2-yl)-8-methoxy-5,6-dihydropyrrolo[2,1-a]isoquinoline-2-carboxamide]",< 0.1
9,COc1cc2c(cc1OC1CCCC1)-c1cc(C(=O)N[C@@H](CO)Cc3c[nH]c4ccccc34)c(-c3cccc(F)c3)n1CC2 [Example 35],< 0.1
10,"COc1cc2c(cc1OCC1CC1)-c1cc(C(=O)N[C@@H](CO)Cc3c[nH]c4ccccc34)c(-c3cccc(F)c3)n1CC2 [Example 36, (R)-9-(cyclopropylmethoxy)-3-(3-fluorophenyl)-N-(1-hydroxy-3-(1H-indol-3-yl)propan-2-yl)-8-methoxy-5,6-dihydropyrrolo[2,1-a]isoquinoline-2-carboxamide]",< 0.1
11,"CCCC(C)Oc1cc2c(cc1OC)CCn1c-2cc(C(=O)N[C@@H](CO)Cc2c[nH]c3ccccc23)c1-c1cccc(F)c1 (stereo partly drawn) [Example 37, 3-(3-fluorophenyl)-N—((R)-1-hydroxy-3-(1H-indol-3-yl)propan-2-yl)-8-methoxy-9-(pentan-2-yloxy)-5,6-dihydropyrrolo[2,1-a]isoquinoline-2-carboxamide]",< 0.1
12,"COc1cc2c(cc1OCCO)-c1cc(C(=O)N[C@@H](CO)Cc3c[nH]c4ccccc34)c(-c3cccc(F)c3)n1CC2 [Example 38, (R)-3-(3-fluorophenyl)-N-(1-hydroxy-3-(1H-indol-3-yl)propan-2-yl)-9-(2-hydroxyethoxy)-8-methoxy-5,6-dihydropyrrolo[2,1-a]isoquinoline-2-carboxamide]",< 0.1
13,"COc1cc2c(cc1OCCN(C)C)-c1cc(C(=O)N[C@@H](CO)Cc3c[nH]c4ccccc34)c(-c3cccc(F)c3)n1CC2 [Example 39, (R)-9-(2-(dimethylamino)ethoxy)-3-(3-fluorophenyl)-N-(1-hydroxy-3-(1H-indol-3-yl)propan-2-yl)-8-methoxy-5,6-dihydropyrrolo[2,1-a]isoquinoline-2-carboxamide]",0.1 to 1
14,"COc1cc2c(cc1OCC(O)CO)-c1cc(C(=O)N[C@@H](CO)Cc3c[nH]c4ccccc34)c(-c3cccs3)n1CC2 (stereo partly drawn) [Example 40, 9-(2,3-dihydroxypropoxy)-N—((R)-1-hydroxy-3-(1H-indol-3-yl)propan-2-yl)-8-methoxy-3-(thiophen-2-yl)-5,6-dihydropyrrolo[2,1-a]isoquinoline-2-carboxamide]",< 0.1
15,C=CCOc1cc2c(cc1OC)CCn1c-2cc(C(=O)N[C@@H](CO)Cc2c[nH]c3ccccc23)c1-c1cccs1 [Example 41],< 0.1
16,"COc1cc2c(cc1-c1cccnc1)-c1cc(C(=O)N[C@@H](CO)Cc3c[nH]c4ccccc34)c(-c3cccc(F)c3)n1CC2 [Example 42, (R)-3-(3-fluorophenyl)-N-(1-hydroxy-3-(1H-indol-3-yl)propan-2-yl)-8-methoxy-9-(pyridin-3-yl)-5,6-dihydropyrrolo[2,1-a]isoquinoline-2-carboxamide]",< 0.1
17,"CCc1cc2c(cc1OC)CCn1c-2cc(C(=O)N[C@@H](CO)Cc2c[nH]c3ccccc23)c1-c1cccc(F)c1 [Example 43, (R)-9-ethyl-3-(3-fluorophenyl)-N-(1-hydroxy-3-(1H-indol-3-yl)propan-2-yl)-8-methoxy-5,6-dihydropyrrolo[2,1-a]isoquinoline-2-carboxamide]",< 0.1
18,"COc1cc2c(cc1C(C)C(C)C)-c1cc(C(=O)N[C@@H](CO)Cc3c[nH]c4ccccc34)c(-c3cccc(F)c3)n1CC2 (stereo partly drawn) [Example 44, 3-(3-fluorophenyl)-N—((R)-1-hydroxy-3-(1H-indol-3-yl)propan-2-yl)-8-methoxy-9-(3-methylbutan-2-yl)-5,6-dihydropyrrolo[2,1-a]isoquinoline-2-carboxamide]",< 0.1
19,"COc1cc2c(cc1C=C(C)C)-c1cc(C(=O)N[C@@H](CO)Cc3c[nH]c4ccccc34)c(-c3cccc(F)c3)n1CC2 [Example 45, (R)-3-(3-fluorophenyl)-N-(1-hydroxy-3-(1H-indol-3-yl)propan-2-yl)-8-methoxy-9-(2-methylprop-1-enyl)-5,6-dihydropyrrolo[2,1-a]isoquinoline-2-carboxamide]",< 0.1
20,"COc1cc2c(cc1C(C)=C(C)C)-c1cc(C(=O)N[C@@H](CO)Cc3c[nH]c4ccccc34)c(-c3cccc(F)c3)n1CC2 [Example 46, (R)-3-(3-fluorophenyl)-N-(1-hydroxy-3-(1H-indol-3-yl)propan-2-yl)-8-methoxy-9-(3-methylbut-2-en-2-yl)-5,6-dihydropyrrolo[2,1-a]isoquinoline-2-carboxamide]",0.1 to 1
21,"COc1cc2c(cc1C(=O)N1CCOCC1)-c1cc(C(=O)N[C@@H](CO)Cc3c[nH]c4ccccc34)c(-c3cccc(F)c3)n1CC2 [Example 47, (R)-3-(3-fluorophenyl)-N-(1-hydroxy-3-(1H-indol-3-yl)propan-2-yl)-8-methoxy-9-(morpholine-4-carbonyl)-5,6-dihydropyrrolo[2,1-a]isoquinoline-2-carboxamide]",0.1 to 1
